Laboratory results as given in PMC9366271 (Journal of medicinal chemistry, 2018).
“Also recorded” adds a separate entry of the source.

Columns and labels:
D2R [1] = molecular target: D2R (Homo sapiens, UniProt P14416); test: Dynamic mass redistribution; type: cell-based; details: 500 nM bivalent compounds or 1 μM spiperone for 30 min, then 100 nM sumanirole
D2R [2] = molecular target: D2R (Ovis aries, UniProt A0ACI6R699); type: binding, sheep

Chain of D2R (Homo sapiens, UniProt P14416) (P14416 whole entry): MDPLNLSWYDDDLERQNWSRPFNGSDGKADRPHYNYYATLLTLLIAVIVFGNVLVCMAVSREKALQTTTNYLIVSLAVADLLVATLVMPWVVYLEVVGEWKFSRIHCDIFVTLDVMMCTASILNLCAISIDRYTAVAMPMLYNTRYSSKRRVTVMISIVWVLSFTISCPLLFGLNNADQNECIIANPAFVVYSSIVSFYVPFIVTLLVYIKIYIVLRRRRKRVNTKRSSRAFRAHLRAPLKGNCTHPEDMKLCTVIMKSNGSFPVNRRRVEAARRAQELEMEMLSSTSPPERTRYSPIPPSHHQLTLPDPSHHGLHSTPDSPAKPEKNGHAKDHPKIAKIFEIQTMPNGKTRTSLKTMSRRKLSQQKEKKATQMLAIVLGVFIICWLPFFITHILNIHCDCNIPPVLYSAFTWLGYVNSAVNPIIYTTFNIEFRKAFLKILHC

Compound	magnitude of the signaling by sumanirole in presence of ligand (DMR) (D2R [1])	decrease of binding by disturber peptide TAT-TM6 (D2R [2]; TAT-TM6 of D2R vs no peptide)	effect of TAT-TM6 peptides on binding (D2R [2]; TAT-TM6 peptides of D2R and A2AR, native tissue)
COC(=O)CN(CC(=O)NCCCOCCOCCOCCCNC(=O)CCC(=O)Nc1ccc(CCN2CN(c3ccccc3)C3(CCN(CCCC(=O)c4ccc(F)cc4)CC3)C2=O)cc1)CC(=O)NCCCOCCOCCOCCCNC(=O)CCC(=O)Nc1ccc(CCN2CN(c3ccccc3)C3(CCN(CCCC(=O)c4ccc(F)cc4)CC3)C2=O)cc1 [Compound 12, Methyl 24-((4-(2-(8-(4-(4-fluorophenyl)-4-oxobutyl)-4-oxo-1-phenyl-1,3,8-triazaspiro[4.5]decan-3-yl)ethyl)phenyl)amino)-3-(21-((4-(2-(8-(4-(4-fluorophenyl)-4-oxobutyl)-4-oxo-1-phenyl-1,3,8-triazaspiro[4.5]decan-3-yl)ethyl)phenyl)amino)-2,18,21-trioxo-7,10,13-trioxa-3,17-diazahenicosyl)-5,21,24-trioxo-10,13,16-trioxa-3,6,20-triazatetracosanoate]	significantly decreased		
COC(=O)CN(CC(=O)NCCOCCOCCNC(=O)CCC(=O)Nc1ccc(CCN2CN(c3ccccc3)C3(CCN(CCCC(=O)c4ccc(F)cc4)CC3)C2=O)cc1)CC(=O)NCCOCCOCCNC(=O)CCC(=O)Nc1ccc(CCN2CN(c3ccccc3)C3(CCN(CCCC(=O)c4ccc(F)cc4)CC3)C2=O)cc1 [Compound 13, Methyl 19-((4-(2-(8-(4-(4-fluorophenyl)-4-oxobutyl)-4-oxo-1-phenyl-1,3,8-triazaspiro[4.5]decan-3-yl)ethyl)phenyl)amino)-3-(16-((4-(2-(8-(4-(4-fluorophenyl)-4-oxobutyl)-4-oxo-1-phenyl-1,3,8-triazaspiro[4.5]decan-3-yl)ethyl)phenyl)amino)-2,13,16-trioxo-6,9-dioxa-3,12-diazahexadecyl)-5,16,19-trioxo-9,12-dioxa-3,6,15-triazanonadecanoate]	significantly decreased	52 fold	
COC(=O)CN(CC(=O)NCCOCCOCCNC(C)=O)CC(=O)NCCOCCOCCNC(=O)CCC(=O)Nc1ccc(CCN2CN(c3ccccc3)C3(CCN(CCCC(=O)c4ccc(F)cc4)CC3)C2=O)cc1 [Compound 15, Methyl 3-(2,13-dioxo-6,9-dioxa-3,12-diazatetradecyl)-19-((4-(2-(8-(4-(4-fluorophenyl)-4-oxobutyl)-4-oxo-1-phenyl-1,3,8-triazaspiro[4.5]decan-3-yl)ethyl)phenyl)amino)-5,16,19-trioxo-9,12-dioxa-3,6,15-triazanonadecanoate]			had no effect; also recorded: Neither TAT-TM6 peptide of D2R nor A2R influenced the binding
O=C(CCCN1CCC2(CC1)C(=O)NCN2c1ccccc1)c1ccc(F)cc1 [spiperone, reference compound]	significantly decreased		
